Publication PMC7567588 (Science Advances, 2020)
*: point of attachment. ACC = NC(=O)Cc1cc(=O)oc2cc(N*)ccc12

How the values were obtained:
SARS-CoV-2 PLpro [1] = biological target: T1, SARS-CoV-2 PLpro (Severe acute respiratory syndrome coronavirus 2, UniProt P0DTD1)
human DUB UCH-L3 [2] = biological target: T2, human DUB UCH-L3 (Homo sapiens, UniProt P15374); assay type: biochemical
human DUB UCH-L3 [3] = biological target: T2, human DUB UCH-L3; assay type: biochemical; remark: listed apart in the source
[4] = tested on: human DUBs in HeLa lysates; assay type: biochemical
SARS-CoV-2 PLpro [5] = biological target: T1, SARS-CoV-2 PLpro; remark: listed apart in the source

T2 sequence (P15374 whole entry, looked up): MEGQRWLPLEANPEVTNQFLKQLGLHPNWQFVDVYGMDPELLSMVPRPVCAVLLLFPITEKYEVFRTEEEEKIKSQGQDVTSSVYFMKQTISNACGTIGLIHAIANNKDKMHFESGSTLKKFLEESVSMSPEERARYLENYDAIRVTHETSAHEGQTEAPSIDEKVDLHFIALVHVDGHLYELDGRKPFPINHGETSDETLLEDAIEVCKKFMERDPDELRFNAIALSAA

With Ac-LRGG-{ACC} [Ac-LRGG-ACC] the “substrate recognition (hydrolysis rate, RFU/s)” value (SARS-CoV-2 PLpro [1]) was “recognized” and the “substrate recognition (hydrolysis rate, RFU/s)” value (human DUB UCH-L3 [2]) was “recognized”.
With Ac-Abu(Bth)-Dap-Gly-Gly-VME [VIR250] the “inhibition of DUB activity (residual activity)” value (human DUB UCH-L3 [3]) was “practically no inhibition”, the “Ub-VME cross-linking profile of HeLa lysates on titration of inhibitor” value [4] was “unaltered” and the “inhibition of DUB activity (residual activity)” value (SARS-CoV-2 PLpro [5]) was “robustly inhibit”.
